Columns and labels:
KDR-Kinase (VEGFR-2) = target: T1, KDR-Kinase (VEGFR-2) (Homo sapiens, UniProt P35968); assay: KDR Kinase Inhibition; type: biochemical; conditions: GST-kinase domain fusion construct of the KDR kinase; poly(Glu4Tyr) substrate, 32P-γATP
T1 construct: GST-kinase domain fusion construct of the KDR kinase; GST
Experimental: Kinase activity was measured with a GST-kinase domain fusion construct of the KDR kinase according to the following protocol to obtain concentration response curves. Components were added into a microtiterplate in the following sequence: 10 μl of inhibitor in threefold final concentration [3% DMSO in buffer (40 mM Tris Cl pH 7.5; 1 mM DTT, 1 mM MnCl2, 10 mM MgCl2, 2.5 Promille Polyethyleneglycol 20000)] and 10 μl of substrate mixture [24 μM ATP, 24 μg/ml poly(Glu4Tyr) in buffer, specific activity approx. 500 cpm/pmol ^32P-γATP]. Reaction was started by adding 10 μl of enzyme preparation diluted appropriately in buffer that contains 10 μM vanadate. After incubation for exactly 10 min the reaction was stopped by adding of 10 μl stop solution (250 mM EDTA). 10 μl of the reaction mixture were transferred to phosphocellulose filters. The filters were washed in 0.1% phosphoric acid, dried before meltilex scintillator was applied (Wallac, Perkin-Elmer) and the radioactivity was counted.

[1] = target: T2, human Cytochrome P 450 isoenzyme 2C9 (Homo sapiens, UniProt P11712); assay: Cytochrome P450 Inhibition (2C9); type: in vitro ADME; conditions: baculovirus/insect cell-expressed human isoenzyme; read-out: IC50 CYP 2C9
T2 construct: host or cells: baculovirus/insect cells
Experimental: (§1) The Cytochrome P450 isoenzyme inhibition was performed according to the publication of Crespi et al. (Anal. Biochem., 1997, 248, 188-190) with use of the baculovirus/insect cell-expressed, human Cytochrome P 450 isoenzymes (2C9 and 2C19).

[2] = target: T3, human Cytochrome P 450 isoenzyme 2C19 (Homo sapiens, UniProt P33261); assay: Cytochrome P450 Inhibition (2C19); type: in vitro ADME; conditions: baculovirus/insect cell-expressed human isoenzyme; read-out: IC50 CYP 2C19
T3 construct: host or cells: baculovirus/insect cells
Experimental: as §1

T2 sequence (P11712 whole entry): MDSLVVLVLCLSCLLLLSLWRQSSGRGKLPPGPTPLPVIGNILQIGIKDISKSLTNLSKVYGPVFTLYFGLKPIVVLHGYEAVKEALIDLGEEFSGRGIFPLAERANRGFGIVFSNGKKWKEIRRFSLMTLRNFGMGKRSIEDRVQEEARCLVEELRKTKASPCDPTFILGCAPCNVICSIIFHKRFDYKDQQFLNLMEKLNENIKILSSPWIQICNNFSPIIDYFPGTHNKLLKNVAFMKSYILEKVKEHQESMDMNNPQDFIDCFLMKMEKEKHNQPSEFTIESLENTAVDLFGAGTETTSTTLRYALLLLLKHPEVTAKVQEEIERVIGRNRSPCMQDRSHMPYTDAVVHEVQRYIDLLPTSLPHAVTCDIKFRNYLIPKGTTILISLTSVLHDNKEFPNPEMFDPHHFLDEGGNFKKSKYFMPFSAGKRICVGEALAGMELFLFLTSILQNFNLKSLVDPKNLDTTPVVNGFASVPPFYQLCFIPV
T1 sequence (P35968 834-1162 limits assumed, species assumed): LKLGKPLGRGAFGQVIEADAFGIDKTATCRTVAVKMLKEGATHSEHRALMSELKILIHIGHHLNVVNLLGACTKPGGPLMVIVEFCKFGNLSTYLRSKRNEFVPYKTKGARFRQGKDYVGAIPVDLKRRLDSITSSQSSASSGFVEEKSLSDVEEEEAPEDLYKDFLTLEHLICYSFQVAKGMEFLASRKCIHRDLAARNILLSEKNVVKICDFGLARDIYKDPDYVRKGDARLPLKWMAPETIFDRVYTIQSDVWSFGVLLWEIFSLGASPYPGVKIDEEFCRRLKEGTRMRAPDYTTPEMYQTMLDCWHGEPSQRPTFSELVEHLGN
T3 sequence (P33261 whole entry): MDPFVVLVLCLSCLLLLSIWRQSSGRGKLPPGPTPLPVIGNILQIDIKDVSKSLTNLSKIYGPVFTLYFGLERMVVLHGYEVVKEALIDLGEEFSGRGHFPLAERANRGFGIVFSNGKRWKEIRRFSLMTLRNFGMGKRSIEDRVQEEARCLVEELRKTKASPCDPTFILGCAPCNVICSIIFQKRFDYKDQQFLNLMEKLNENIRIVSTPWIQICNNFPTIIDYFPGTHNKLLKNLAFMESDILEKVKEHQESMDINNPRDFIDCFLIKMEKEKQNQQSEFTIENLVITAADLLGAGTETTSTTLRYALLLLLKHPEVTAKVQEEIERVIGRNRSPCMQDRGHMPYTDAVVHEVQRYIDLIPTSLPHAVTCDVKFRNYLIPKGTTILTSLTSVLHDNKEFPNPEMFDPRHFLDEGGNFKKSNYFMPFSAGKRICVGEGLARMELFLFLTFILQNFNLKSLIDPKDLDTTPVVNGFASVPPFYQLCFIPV

| IC50 (KDR-Kinase (VEGFR-2)) | IC50 [1] | melting point | IC50 [2] | SMILES |
| --- | --- | --- | --- | --- |
| 0.01 µM | 11.7 µM | 205 to 207 °C | > 30 µM | CNC(=O)Nc1cc(CNc2ncccc2C(=O)Nc2ccc3cn(C)nc3c2)ccn1 [Example 1.0, N-(2-methyl-2H-indazol-6-yl)-2-{[2-(3-methyl-ureido)-pyridin-4-ylmethyl]-amino}-nicotinamide] |
| – | – | 206 to 207 °C | – | CNC(=O)Nc1cc(CNc2ncccc2C(=O)Nc2cccc(C(F)(F)F)c2)ccn1 [Example 1.1, 2-{[2-(3-methyl-ureido)-pyridin-4-ylmethyl]-amino}-N-(3-trifluoromethyl-phenyl)-nicotinamide] |
| – | – | 228 to 229 °C | – | CNC(=O)Nc1cc(CNc2ncccc2C(=O)Nc2ccc3cnn(C)c3c2)ccn1 [Example 1.2, N-(1-methyl-1H-indazol-6-yl)-2-{[2-(3-methyl-ureido)-pyridin-4-ylmethyl]-amino}-nicotinamide] |
| – | – | 191 to 192 °C | – | CNC(=O)Nc1cc(CNc2ncccc2C(=O)Nc2cc3ccccc3cn2)ccn1 [Example 1.3, N-isoquinolin-3-yl-2-{[2-(3-methyl-ureido)-pyridin-4-ylmethyl]-amino}-nicotinamide] |
| – | – | 219 to 220 °C | – | CNC(=O)Nc1cc(CNc2ncccc2C(=O)Nc2ccc3c(cnn3C)c2)ccn1 [Example 1.4, N-(1-methyl-1H-indazol-5-yl)-2-{[2-(3-methyl-ureido)-pyridin-4-ylmethyl]-amino}-nicotinamide] |
| 0.029 µM | > 30 µM | – | > 30 µM | Cn1cc2ccc(NC(=O)c3cccnc3NCc3ccnc(NC(=O)N4CCOCC4)c3)cc2n1 [Example 2.0, morpholine-4-carboxylic acid (4-{[3-(2-methyl-2H-indazol-6-ylcarbamoyl)-pyridin-2-ylamino]-methyl}-pyridin-2-yl)-amide] |

Reference: US7906533B2, “Nicotinamide pyridinureas as vascular endothelial growth factor (VEGF) receptor kinase inhibitors” (Bayer Schering Pharma AG, priority 2004, dated 2011)
